Measured values published in US8569292B2, “Cyclic inhibitors of 11β-hydroxysteroid dehydrogenase 1” (Vitae Pharmaceuticals, Inc., priority 2008, dated 2013).

Legend:
[1] = target: CYP3A4 (Homo sapiens, UniProt P08684); test: Biological Test Example 6: CYP3A4 inhibition (erythromycin N-demethylation); assay type: in vitro ADME
[2] = target: T1, CYP2C9 (Homo sapiens, UniProt P11712); test: Biological Test Example 7: CYP2C9 inhibition (naproxen O-demethylation); assay type: in vitro ADME
T1 construct: purchased Invitrogen 2859; host or cells: insect cells infected with baculovirus (microsomes)

[3] = target: CYP2C19 (Homo sapiens, UniProt P33261); test: Biological Test Example 8: CYP2C19 inhibition (diazepam N-demethylation); assay type: in vitro ADME
[4] = target: T1, CYP2C9; test: Biological Test Example 9: CYP2C9 inhibition (Invitrogen kit, fluorogenic OOMR); assay type: in vitro ADME
[5] = target: T2, 11β-HSD1 (Homo sapiens, UniProt P28845); test: biochemical; conditions: for inhibition at 0.1 µM: read-out: Average % inhibition at 100 nM
[6] = target: T2, 11β-HSD1; test: Biological Test Example 4: microsomal 11β-HSD1 in the presence of 50% human plasma; conditions: for Shift: IC50 in Test Example 4 divided by IC50 in Test Example 1
[7] = Biological Test Example 1 IC50 (nM)
[8] = IC50 Range, Biological Test Example 1

CYP3A4, sequence (P08684 whole entry): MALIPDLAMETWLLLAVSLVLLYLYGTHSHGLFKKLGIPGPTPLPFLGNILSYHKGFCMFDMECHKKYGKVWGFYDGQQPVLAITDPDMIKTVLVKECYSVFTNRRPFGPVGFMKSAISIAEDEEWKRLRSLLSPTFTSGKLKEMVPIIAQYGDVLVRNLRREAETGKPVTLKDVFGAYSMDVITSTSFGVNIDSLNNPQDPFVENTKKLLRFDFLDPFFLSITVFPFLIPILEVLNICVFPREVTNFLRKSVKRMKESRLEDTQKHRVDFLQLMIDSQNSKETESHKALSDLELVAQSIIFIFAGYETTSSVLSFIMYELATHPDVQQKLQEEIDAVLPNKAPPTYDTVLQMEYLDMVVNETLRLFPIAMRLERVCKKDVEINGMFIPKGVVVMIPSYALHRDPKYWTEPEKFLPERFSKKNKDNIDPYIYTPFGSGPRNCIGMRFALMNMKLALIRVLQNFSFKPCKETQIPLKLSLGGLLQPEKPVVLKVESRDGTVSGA
CYP2C19, sequence (P33261 whole entry): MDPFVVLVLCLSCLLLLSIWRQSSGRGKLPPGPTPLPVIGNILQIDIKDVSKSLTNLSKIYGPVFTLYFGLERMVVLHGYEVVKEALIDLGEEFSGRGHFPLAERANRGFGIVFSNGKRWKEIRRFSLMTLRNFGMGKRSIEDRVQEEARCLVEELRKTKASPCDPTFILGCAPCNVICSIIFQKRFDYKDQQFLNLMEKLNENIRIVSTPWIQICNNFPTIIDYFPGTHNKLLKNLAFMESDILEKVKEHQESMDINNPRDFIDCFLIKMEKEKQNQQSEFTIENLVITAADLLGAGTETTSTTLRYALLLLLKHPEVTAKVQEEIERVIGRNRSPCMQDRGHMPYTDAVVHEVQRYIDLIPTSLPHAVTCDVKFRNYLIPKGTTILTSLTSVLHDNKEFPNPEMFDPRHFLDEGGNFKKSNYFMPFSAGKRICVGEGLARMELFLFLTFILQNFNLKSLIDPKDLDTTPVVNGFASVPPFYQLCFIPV
T1 sequence (P11712 whole entry): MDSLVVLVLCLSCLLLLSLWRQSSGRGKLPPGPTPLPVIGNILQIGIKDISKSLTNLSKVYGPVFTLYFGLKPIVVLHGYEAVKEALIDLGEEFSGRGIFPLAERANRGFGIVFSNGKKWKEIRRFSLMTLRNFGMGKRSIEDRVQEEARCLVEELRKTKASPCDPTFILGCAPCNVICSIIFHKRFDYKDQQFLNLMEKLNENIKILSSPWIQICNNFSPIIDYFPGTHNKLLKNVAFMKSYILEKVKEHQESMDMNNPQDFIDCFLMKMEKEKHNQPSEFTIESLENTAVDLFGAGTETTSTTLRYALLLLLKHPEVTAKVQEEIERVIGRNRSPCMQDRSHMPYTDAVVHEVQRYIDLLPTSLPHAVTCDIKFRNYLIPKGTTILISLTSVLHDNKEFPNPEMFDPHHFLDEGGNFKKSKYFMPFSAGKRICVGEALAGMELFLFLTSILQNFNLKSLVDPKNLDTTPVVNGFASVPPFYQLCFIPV
T2 sequence (P28845 whole entry): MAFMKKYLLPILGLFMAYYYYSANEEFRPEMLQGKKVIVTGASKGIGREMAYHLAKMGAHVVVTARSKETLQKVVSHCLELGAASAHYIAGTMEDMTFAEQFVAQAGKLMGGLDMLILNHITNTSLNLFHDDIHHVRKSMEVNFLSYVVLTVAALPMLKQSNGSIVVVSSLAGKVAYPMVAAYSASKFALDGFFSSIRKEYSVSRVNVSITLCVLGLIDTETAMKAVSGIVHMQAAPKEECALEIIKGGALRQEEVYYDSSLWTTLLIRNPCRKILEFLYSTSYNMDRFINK

Compound	IC50 [1]	IC50 [2]	IC50 [3]	IC50 [4]	IC50 [5, 7]	IC50 [5, 8]	inhibition at 0.1 µM [5]	IC50 [6]	Shift [6]
C[C@@H](c1ccc(-c2ncc(C(=O)NC3CC3)s2)cc1)N1CC[C@](CC(C)(C)O)(c2ccccc2)OC1=O [EXAMPLE 20, N-cyclopropyl-2-(4-((S)-1-((S)-6-(2-hydroxy-2-methylpropyl)-2-oxo-6-phenyl-1,3-oxazinan-3-yl)ethyl)phenyl)thiazole-5-carboxamide]	49.8 µM	15.4 µM	47.7 µM						
Cc1cc(-c2ccc([C@H](C)N3CC[C@](CCO)(c4ccc(F)cc4)OC3=O)cc2)ccn1 [EXAMPLE 75, (S)-6-(4-fluorophenyl)-6-(2-hydroxyethyl)-3-((S)-1-(4-(2-methylpyridin-4-yl)phenyl)ethyl)-1,3-oxazinan-2-one]	14.9 µM	12.2 µM		9.1 µM	1.1 nM	< 100 nM	97.7%	0.0098 µM	
Cc1cc(-c2ccc([C@H](C)N3CC[C@](CC(C)(C)O)(c4ccc(F)cc4)OC3=O)cc2)cc(C)[n+]1[O-] [EXAMPLE 123, 4-(4-((S)-1-((S)-6-(4-fluorophenyl)-6-(2-hydroxy-2-methylpropyl)-2-oxo-1,3-oxazinan-3-yl)ethyl)phenyl)-2,6-dimethylpyridine 1-oxide]				9.1 µM	6.6 nM	< 100 nM	93.6%	0.0111 µM	1.7
C[C@@H](c1ccc(-c2ccnc(N)c2)cc1)N1CC[C@](CCCO)(c2ccccc2)OC1=O [EXAMPLE 125, (R)-3-((S)-1-(4-(2-aminopyridin-4-yl)phenyl)ethyl)-6-(3-hydroxypropyl)-6-phenyl-1,3-oxazinan-2-one]				4.3 µM	0.6 nM	< 100 nM	98.6%	0.0068 µM	12.3
Cc1cc(-c2ccc([C@H](C)N3CC[C@](CCCO)(c4ccc(F)cc4)OC3=O)cc2)nc(C)n1 [EXAMPLE 127, (R)-3-((S)-1-(4-(2,6-dimethylpyrimidin-4-yl)phenyl)ethyl)-6-(4-fluorophenyl)-6-(3-hydroxypropyl)-1,3-oxazinan-2-one]				> 30 µM	6.1 nM	< 100 nM	93.7%	0.0698 µM	11.5
C[C@@H](c1ccc(-c2ccncn2)cc1)N1CC[C@](CCCO)(c2ccc(F)cc2)OC1=O [EXAMPLE 128, (R)-6-(4-fluorophenyl)-6-(3-hydroxypropyl)-3-((S)-1-(4-(pyrimidin-4-yl)phenyl)ethyl)-1,3-oxazinan-2-one]				3.3 µM	1.1 nM	< 100 nM	96.5%	0.0085 µM	
C[C@@H](c1ccc(-c2cncnc2)cc1)N1CC[C@](CCCO)(c2ccc(F)cc2)OC1=O [EXAMPLE 129, (R)-6-(4-fluorophenyl)-6-(3-hydroxypropyl)-3-((S)-1-(4-(pyrimidin-5-yl)phenyl)ethyl)-1,3-oxazinan-2-one]				28.3 µM	4.3 nM	< 100 nM	93.9%	0.0173 µM	4.1
C[C@@H](c1ccc(-c2cccnn2)cc1)N1CC[C@](CCCO)(c2ccc(F)cc2)OC1=O [EXAMPLE 132, (R)-6-(4-fluorophenyl)-6-(3-hydroxypropyl)-3-((S)-1-(4-(pyridazin-3-yl)phenyl)ethyl)-1,3-oxazinan-2-one]				18.3 µM	6.1 nM	< 100 nM	95.2%	0.0189 µM	3.1
C[C@@H](c1ccc(-c2ccc(C(N)=O)cn2)cc1)N1CC[C@](CCCO)(c2ccccc2)OC1=O [EXAMPLE 140, 6-(4-((S)-1-((R)-6-(3-hydroxypropyl)-2-oxo-6-phenyl-1,3-oxazinan-3-yl)ethyl)phenyl)nicotinamide]				20.6 µM	1.1 nM	< 100 nM	98.7%	0.0068 µM	6.4
Cc1ccc(-c2ccc([C@H](C)N3CC[C@](CCCO)(c4ccc(F)cc4)OC3=O)cc2)c(C)n1 [EXAMPLE 141, (R)-3-((S)-1-(4-(2,6-dimethylpyridin-3-yl)phenyl)ethyl)-6-(4-fluorophenyl)-6-(3-hydroxypropyl)-1,3-oxazinan-2-one]				> 30 µM	1 nM	< 100 nM	102%	0.0066 µM	6.3
C[C@@H](c1ccc(-c2ccc(C(N)=O)cn2)cc1)N1CC[C@](CC(C)(C)O)(c2ccccc2)OC1=O [EXAMPLE 143, 6-(4-((S)-1-((S)-6-(2-hydroxy-2-methylpropyl)-2-oxo-6-phenyl-1,3-oxazinan-3-yl)ethyl)phenyl)nicotinamide]		> 50 µM	> 50 µM						
COc1cc(-c2ccc([C@H](C)N3CC[C@](CCCO)(c4ccc(F)cc4)OC3=O)cc2)ccn1 [EXAMPLE 147, (R)-6-(4-fluorophenyl)-6-(3-hydroxypropyl)-3-((S)-1-(4-(2-methoxypyridin-4-yl)phenyl)ethyl)-1,3-oxazinan-2-one]				4.6 µM	0.9 nM	< 100 nM	98.7%	0.0079 µM	
C[C@@H](c1ccc(-c2cncc(F)c2)cc1)N1CC[C@](CCCO)(c2ccc(F)cc2)OC1=O [EXAMPLE 148, (R)-6-(4-fluorophenyl)-3-((S)-1-(4-(5-fluoropyridin-3-yl)phenyl)ethyl)-6-(3-hydroxypropyl)-1,3-oxazinan-2-one]				1.7 µM	0.7 nM	< 100 nM	97.4%	0.0048 µM	7.3
CNC(=O)c1ccc(-c2ccc([C@H](C)N3CC[C@](CC(C)(C)O)(c4ccccc4)OC3=O)cc2)nc1 [EXAMPLE 150, 6-(4-{1-[6-(2-Hydroxy-2-methyl-propyl)-2-oxo-6-phenyl-[1,3]oxazinan-3-yl]-ethyl}-phenyl)-N-methyl-nicotinamide]		28.8 µM	33.8 µM						
Cc1cnc(-c2ccc([C@H](C)N3CC[C@](CC(C)(C)O)(c4ccccc4)OC3=O)cc2)cn1 [EXAMPLE 151, (S)-6-(2-hydroxy-2-methylpropyl)-3-((S)-1-(4-(5-methylpyrazin-2-yl)phenyl)ethyl)-6-phenyl-1,3-oxazinan-2-one]		32.6 µM	32.3 µM						
COC[C@]1(c2ccccc2)CCN([C@@H](C)c2ccc(-c3ccc(C)nn3)cc2)C(=O)O1 [EXAMPLE 167, (R)-6-(methoxymethyl)-3-((S)-1-(4-(6-methylpyridazin-3-yl)phenyl)ethyl)-6-phenyl-1,3-oxazinan-2-one]	46.7 µM	29.5 µM	26.1 µM						
CCNC(=O)c1ccc(-c2ccc([C@H](C)N3CC[C@](CC(C)(C)O)(c4ccccc4)OC3=O)cc2)cn1 [EXAMPLE 168, 5-(4-{(S)-1-[(S)-6-(2-Hydroxy-2-methyl-propyl)-2-oxo-6-phenyl-[1,3]oxazinan-3-yl]-ethyl}-phenyl)-pyridine-2-carboxylic acid ethylamide]	16.8 µM	15.1 µM	7.9 µM						
CNC(=O)c1ccc(-c2ccc([C@H](C)N3CC[C@](CC(C)(C)O)(c4ccccc4)OC3=O)cc2)cn1 [EXAMPLE 169, 5-(4-{(S)-1-[(S)-6-(2-Hydroxy-2-methyl-propyl)-2-oxo-6-phenyl-[1,3]oxazinan-3-yl]-ethyl}-phenyl)-pyridine-2-carboxylic acid methylamide]	28.4 µM	45.2 µM	5.9 µM						
C[C@@H](c1ccc(-c2ccc(C(=O)N(C)C)nc2)cc1)N1CC[C@](CC(C)(C)O)(c2ccccc2)OC1=O [EXAMPLE 170]	45.6 µM	48.6 µM	39.4 µM						
C[C@@H](c1ccc(-c2cncs2)cc1)N1CC[C@](CC(C)(C)O)(c2ccccc2)OC1=O [EXAMPLE 171, (S)-6-(2-Hydroxy-2-methyl-propyl)-6-phenyl-3-[(S)-1-(4-thiazol-5-yl-phenyl)-ethyl]-[1,3]oxazinan-2-one]	< 0.4 µM	9.2 µM	0.8 µM						
C[C@@H](c1ccc(-c2nncs2)cc1)N1CC[C@](CC(C)(C)O)(c2ccccc2)OC1=O [EXAMPLE 173, (S)-6-(2-Hydroxy-2-methyl-propyl)-6-phenyl-3-[(S)-1-(4-[1,3,4]thiadiazol-2-yl-phenyl)-ethyl]-[1,3]oxazinan-2-one]	25.1 µM	27.2 µM	33.6 µM						
C[C@@H](c1ccc(-c2nccs2)cc1)N1CC[C@](CC(C)(C)O)(c2ccccc2)OC1=O [EXAMPLE 174, (S)-6-(2-Hydroxy-2-methyl-propyl)-6-phenyl-3-[(S)-1-(4-thiazol-2-yl-phenyl)-ethyl]-[1,3]oxazinan-2-one]	5.4 µM	7.8 µM	1 µM						
C[C@@H](c1ccc(-c2cscn2)cc1)N1CC[C@](CC(C)(C)O)(c2ccccc2)OC1=O [EXAMPLE 175, (S)-6-(2-Hydroxy-2-methyl-propyl)-6-phenyl-3-[(S)-1-(4-thiazol-4-yl-phenyl)-ethyl]-[1,3]oxazinan-2-one]	9.7 µM	29.8 µM	1.8 µM						
Cc1nc(C)c(-c2ccc([C@H](C)N3CC[C@](CC(C)(C)O)(c4ccccc4)OC3=O)cc2)s1 [EXAMPLE 176, 3-{(S)-1-[4-(2,4-Dimethyl-thiazol-5-yl)-phenyl]-ethyl}-(S)-6-(2-hydroxy-2-methyl-propyl)-6-phenyl-[1,3]oxazinan-2-one]	7.5 µM	6 µM	7.9 µM						
